Experimental data reported in the supplement of paper PMC10307832.

Experiments:
Test in all cases: relative viability (nuclei count vs DMSO), 5 days (fraction); higher = more cells survive
[1] = compound: C/C(=N\NC(=S)N1CCC1)/C2=CC=CC=N2 + Nc1ncn([C@H]2C[C@H](O)[C@@H](CO)O2)c(=O)n1 [Decitabine] (partner 2 µM)
Outline: (§1)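 Lung cancer cell lines were pin-tool dosed in 1536-well plates on the day after seeding, with either a lone drug or a fixed anchor-drug dose plus five library-drug doses (not always all listed) in √10 steps. Nuclei were counted on 4× images after 5 days. Relative viability is the ratio of treated-well to vehicle-well nuclei counts, with each value a median of duplicate plates.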

[2] = compound: C/C(=N\NC(=S)N1CCC1)/C2=CC=CC=N2 + CS(=O)(=O)CCNCc1ccc(-c2ccc3ncnc(Nc4ccc(OCc5cccc(F)c5)c(Cl)c4)c3c2)o1 [Lapatinib] (partner 2 µM)
Outline: as §1

[3] = compound: C/C(=N\NC(=S)N1CCC1)/C2=CC=CC=N2 + CCNC(=O)c1noc(-c2cc(C(C)C)c(O)cc2O)c1-c1ccc(CN2CCOCC2)cc1 [Luminespib] (partner 0.01 µM)
Outline: as §1

[4] = compound: C/C(=N\NC(=S)N1CCC1)/C2=CC=CC=N2 + O=C(c1cc(Cc2n[nH]c(=O)c3ccccc23)ccc1F)N1CCN(C(=O)C2CC2)CC1 [Olaparib] (partner 8 µM)
Outline: as §1

Row | Cell Line | relative viability ([1]; first compound 0.05 µM) | relative viability ([1]; first compound 0.1581 µM) | relative viability ([1]; first compound 0.5 µM) | relative viability ([1]; first compound 1.581 µM) | relative viability ([1]; first compound 5 µM) | relative viability ([2]; first compound 0.05 µM) | relative viability ([2]; first compound 0.1581 µM) | relative viability ([2]; first compound 0.5 µM) | relative viability ([2]; first compound 1.581 µM) | relative viability ([2]; first compound 5 µM) | relative viability ([3]; first compound 0.05 µM) | relative viability ([3]; first compound 0.1581 µM) | relative viability ([3]; first compound 0.5 µM) | relative viability ([3]; first compound 1.581 µM) | relative viability ([3]; first compound 5 µM) | relative viability ([4]; first compound 0.05 µM) | relative viability ([4]; first compound 0.1581 µM) | relative viability ([4]; first compound 0.5 µM) | relative viability ([4]; first compound 1.581 µM) | relative viability ([4]; first compound 5 µM)
1 | 201T | 0.553 | 0.802 | 0.348 | 0.29 | 0.28 | 0.447 | 0.578 | 0.444 | 0.447 | 0.351 | 0.394 | 0.394 | 0.35 | 0.322 | 0.256 | 0.487 | 0.871 | 0.349 | 0.241 | 0.247
2 | NCI-H838 | 0.258 | 0.261 | 0.265 | 0.192 | 0.2 | 0.185 | 0.186 | 0.212 | 0.149 | 0.164 | 0.111 | 0.15 | 0.132 | 0.125 | 0.14 | 0.184 | 0.173 | 0.186 | 0.159 | 0.13
3 | SW 1573 | 0.0582 | 0.119 | 0.111 | 0.0723 | 0.0647 | 0.164 | 0.17 | 0.182 | 0.118 | 0.109 | 0.0763 | 0.116 | 0.104 | 0.0921 | 0.0745 | 0.0806 | 0.0899 | 0.138 | 0.0631 | 0.0687
4 | PC-14 | 0.0702 | 0.088 | 0.0592 | 0.0503 | 0.0468 | 0.11 | 0.112 | 0.124 | 0.0912 | 0.0865 | 0.104 | 0.126 | 0.112 | 0.0879 | 0.095 | 0.0569 | 0.064 | 0.0532 | 0.0383 | 0.0401
5 | LK-2 | 0.0805 | 0.111 | 0.0805 | 0.0894 | 0.0937 | 0.171 | 0.25 | 0.201 | 0.144 | 0.199 | 0.16 | 0.147 | 0.158 | 0.188 | 0.131 | 0.076 | 0.14 | 0.104 | 0.0854 | 0.0916
6 | COR-L23 | 0.156 | 0.149 | 0.161 | 0.106 | 0.0995 | 0.144 | 0.156 | 0.119 | 0.0787 | 0.101 | 0.102 | 0.0984 | 0.0928 | 0.0829 | 0.0974 | 0.107 | 0.0921 | 0.0895 | 0.0916 | 0.105
7 | NCI-H1944 | 0.225 | 0.413 | 0.158 | 0.116 | 0.143 | 0.194 | 0.317 | 0.207 | 0.144 | 0.163 | 0.527 | 0.265 | 0.143 | 0.124 | 0.113 | 0.27 | 0.426 | 0.14 | 0.136 | 0.138
8 | NCI-H2405 | 0.284 | 0.246 | 0.24 | 0.239 | 0.246 | 0.251 | 0.236 | 0.263 | 0.25 | 0.281 | 0.218 | 0.245 | 0.287 | 0.242 | 0.283 | 0.259 | 0.272 | 0.268 | 0.252 | 0.208
9 | SK-LU-1 | 0.274 | 0.327 | 0.25 | 0.246 | 0.294 | 0.301 | 0.149 | 0.14 | 0.142 | 0.204 | 0.154 | 0.133 | 0.176 | 0.156 | 0.178 | 0.162 | 0.175 | 0.22 | 0.135 | 0.15
10 | EMC-BAC-2 | 0.261 | 0.268 | 0.228 | 0.219 | 0.212 | 0.113 | 0.169 | 0.178 | 0.173 | 0.153 | 0.217 | 0.225 | 0.177 | 0.19 | 0.232 | 0.188 | 0.22 | 0.195 | 0.164 | 0.203
11 | NCI-H1650 | 0.189 | 0.141 | 0.141 | 0.206 | 0.186 | 0.257 | 0.204 | 0.192 | 0.267 | 0.199 | 0.182 | 0.185 | 0.2 | 0.168 | 0.174 | 0.13 | 0.158 | 0.125 | 0.166 | 0.152
12 | NCI-H596 | 0.887 | 0.408 | 0.335 | 0.317 | 0.418 | 0.339 | 0.293 | 0.221 | 0.228 | 0.299 | 0.433 | 0.673 | 0.246 | 0.222 | 0.235 | 0.616 | 0.391 | 0.347 | 0.31 | 0.292
13 | LCLC-97TM1 | 0.0771 | 0.284 | 0.0691 | 0.0739 | 0.0762 | 0.0934 | 0.101 | 0.0997 | 0.0662 | 0.107 | 0.415 | 0.623 | 0.109 | 0.136 | 0.151 | 0.0715 | 0.422 | 0.0519 | 0.0494 | 0.0514
